From ChEMBL document CHEMBL1201862, “PubChem BioAssay data set” (2004)
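Five concentrations, 48 hours, 96-well plates. At the GI50, growth is halved.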 Active and inactive are the calls of the source. Rule as the data show it: active = GI50 up to about 1.1 µM and inactive = higher.

What was measured:
Assay in all cases: DTP human tumour cell line panel, 48 h
SNB-75 = tested on: SNB-75
A549 = tested on: A549
SR = tested on: SR
HT-29 = tested on: HT-29
OVCAR-8 = tested on: OVCAR-8
SF-295 = tested on: SF-295
HCT-116 = tested on: HCT-116
MOLT-4 = tested on: MOLT-4
HOP-92 = tested on: HOP-92
NCI-H23 = tested on: NCI-H23
UACC-257 = tested on: UACC-257
CAKI-1 = tested on: CAKI-1
SK-OV-3 = tested on: SK-OV-3
SN12C = tested on: SN12C
A498 = tested on: A498
IGROV-1 = tested on: IGROV-1
LOX IMVI = tested on: LOX IMVI
NCI/ADR-RES = tested on: NCI/ADR-RES
MDA-MB-435 = tested on: MDA-MB-435

Measured: GI50

CC(C)(C)C(=O)Cc1cc2c(cc1C(=O)O)S(=O)(=O)NC(C(C)(C)C)=C2
inactive: SNB-75 > 100 µM | A549 > 100 µM | SR > 100 µM | HT-29 > 100 µM | OVCAR-8 > 100 µM | SF-295 > 100 µM | HCT-116 > 100 µM | MOLT-4 > 100 µM | HOP-92 > 100 µM | NCI-H23 > 100 µM | UACC-257 > 100 µM | CAKI-1 > 100 µM | SK-OV-3 > 100 µM | SN12C > 100 µM | A498 > 100 µM

CC1(C)N=C(Oc2ccccc2)n2nccc2N1
inactive: SNB-75 > 100 µM | IGROV-1 > 100 µM | A549 > 100 µM | SR 61.4 µM | HT-29 > 100 µM | SF-295 > 100 µM | HCT-116 51.9 µM | MOLT-4 > 100 µM | HOP-92 > 100 µM | NCI-H23 > 100 µM | UACC-257 > 100 µM | CAKI-1 > 100 µM | LOX IMVI 53.8 µM | SK-OV-3 > 100 µM | SN12C > 100 µM | A498 > 100 µM

CCCCCCCCCCCCCCCC[N+](C)(C)Cc1ccc(C[N+](C)(C)CCCCCCCCCCCCCCCC)cc1
inactive: SNB-75 1.94 µM | IGROV-1 2.43 µM | A549 2.09 µM | SR 2.39 µM | HT-29 2.28 µM | OVCAR-8 2.04 µM | SF-295 1.74 µM | HCT-116 2.59 µM | MOLT-4 1.78 µM | NCI-H23 1.88 µM | UACC-257 3.4 µM | CAKI-1 10.1 µM | LOX IMVI 2.74 µM | SK-OV-3 2.62 µM | SN12C 1.95 µM | A498 > 100 µM

Nc1ccn(CCOC(c2ccccc2)P(=O)(O)O)c(=O)n1 (stereo unspecified)
inactive: SNB-75 12.2 µM | IGROV-1 > 100 µM | A549 > 100 µM | SR > 100 µM | HT-29 > 100 µM | OVCAR-8 > 100 µM | SF-295 > 100 µM | HCT-116 > 100 µM | MOLT-4 > 100 µM | NCI-H23 > 100 µM | UACC-257 > 100 µM | CAKI-1 > 100 µM | LOX IMVI > 100 µM | SK-OV-3 > 100 µM | SN12C > 100 µM | A498 > 100 µM

COc1ccc2nc3n(c2c1)C(=O)c1ccccc1-3
inactive: SNB-75 > 100 µM | IGROV-1 > 100 µM | A549 > 100 µM | SR > 100 µM | HT-29 > 100 µM | OVCAR-8 > 100 µM | SF-295 > 100 µM | NCI/ADR-RES > 100 µM | HCT-116 > 100 µM | MOLT-4 > 100 µM | HOP-92 > 100 µM | NCI-H23 > 100 µM | UACC-257 > 100 µM | CAKI-1 > 100 µM | SK-OV-3 15.1 µM | SN12C > 100 µM

Cc1cc(S(=O)(=O)/N=C2\NCCN2Cc2ccccc2)c(S)cc1Cl
inactive: SNB-75 > 100 µM | IGROV-1 > 100 µM | A549 > 100 µM | HT-29 > 100 µM | OVCAR-8 > 100 µM | SF-295 81.7 µM | NCI/ADR-RES > 100 µM | HCT-116 > 100 µM | MOLT-4 47.2 µM | NCI-H23 > 100 µM | UACC-257 > 100 µM | CAKI-1 > 100 µM | MDA-MB-435 > 100 µM | LOX IMVI > 100 µM | SK-OV-3 > 100 µM | SN12C > 100 µM

Cc1ccc(NC(=O)CCC(=O)C2CC(=O)CC/C2=N\NC(=O)c2cc3ccccc3cc2O)cc1C (stereo unspecified)
inactive: SNB-75 17.1 µM | IGROV-1 15.5 µM | A549 25.1 µM | SR 22.1 µM | HT-29 38.5 µM | OVCAR-8 24.7 µM | SF-295 32.1 µM | HCT-116 19.6 µM | MOLT-4 17.7 µM | HOP-92 14.3 µM | NCI-H23 15.7 µM | UACC-257 20.7 µM | CAKI-1 19 µM | SK-OV-3 67.9 µM | SN12C 48.9 µM | A498 38.4 µM
